Measurements: paper PMC9650428, “Mutagenesis and functional analysis of SotB: A multidrug transporter of the major facilitator superfamily from Escherichia coli” (Frontiers in Microbiology, 2022)
Numbering of substitutions follows the chain as printed.

Key:
[1] = system: sotB-deletion E. coli MG1655 strain; assay: Growth curve (L-arabinose inhibition) assay, sotB-deletion MG1655; type: cell-based, Escherichia coli
Text: In the process of sotB gene knockout, two plasmids were introduced into E. coli MG1655 strain: the plasmid pEcCas expressing Cas9 protein (kanamycin resistance) and the plasmid pEcgRNA/sotB expressing related gRNA (spectinomycin resistance). The pEcCas plasmid was successfully eliminated in this study. […] Thus, the sotB-deletion strain has resistance to spectinomycin. In order to carry out the related L-arabinose inhibition assay more strictly, the same plasmid (pEcgRNA/sotB) was then transformed into intact E. coli MG1655 cells, and the growth conditions of the two strains were measured as follows: The E. coli MG1655 cells (intact cells and sotB-deletion cells) were grown in liquid LB medium containing spectinomycin (50 μg/ml) at 37°C for overnight. The cells were then diluted to an OD600 value of 0.8 with liquid LB medium containing spectinomycin (50 μg/ml). Then, the cells were further diluted 1,000 times with liquid LB medium containing spectinomycin (50 μg/ml). The diluted cells were added to a 96-well plate (200 μl/well). Then, L-arabinose was added with final concentrations of 0 μM, 10 μM, 100 μM, 1 mM, 10 mM, and 100 mM, respectively. The 96-well plate was incubated at 37°C, and the OD600 value was measured every 1 h with a microplate reader. […]

SotB W119A = target: T1, SotB W119A (Escherichia coli, UniProt P31122, W119A); assay: SPR affinity assay, SotB variant W119A; conditions: read-out: KD, binding affinity with W119A
T1 construct: The full-length sotB and lapC genes from the E. coli MG1655 genome were subcloned into the cloning vector pET28a; 8xHis (C); made in house; host or cells: E. coli C43(DE3)
T1 sequence (P31122 1-396 W119A): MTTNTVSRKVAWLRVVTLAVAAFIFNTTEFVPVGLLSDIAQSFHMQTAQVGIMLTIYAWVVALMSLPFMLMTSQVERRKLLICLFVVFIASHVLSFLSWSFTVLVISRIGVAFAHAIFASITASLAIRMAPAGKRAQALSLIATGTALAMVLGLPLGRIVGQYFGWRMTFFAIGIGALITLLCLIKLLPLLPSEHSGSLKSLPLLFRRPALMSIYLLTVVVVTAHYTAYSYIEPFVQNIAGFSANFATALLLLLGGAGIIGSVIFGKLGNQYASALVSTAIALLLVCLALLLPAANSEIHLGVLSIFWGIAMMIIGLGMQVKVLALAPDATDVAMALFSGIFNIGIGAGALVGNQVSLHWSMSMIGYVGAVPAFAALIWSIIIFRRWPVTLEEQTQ
Protocol: (§1) The instrument used in surface plasmon resonance (SPR) affinity assays was OpenSPR (Nicoya, Canada) and the chip used was COOH sensor chip (Nicoya, Canada). SotB and its variants were as ligands. IPTG, L-arabinose, D-xylose, D-glucose, D-fructose, and D-mannose were as small molecules. Using HSB-EP buffer (10 mM HEPES, 150 mM NaCl, 3 mM EDTA, 0.005% Tween-20, pH7.4) as test buffer and setting flow rate 150 μl/min after installed COOH chip according to OpenSPRTM instrument standard operating procedure. After the signal baseline was reached, loading 200 μl 80% isopropyl alcohol and ran for 10 s to drain bubbles. After reaching baseline, the sample ring was rinsed with HSB-EP buffer and emptied with air. After the signal reached the baseline, loading 200 μl EDC (400 mM, Sigma)/NHS (100 mM, Sigma; 1:1) solution with a flow rate 20 μl/min for 4 min. Then, loading 200 μl ligand (SotB/SotB variants) diluted by the activation buffer (sodium acetate, 10 mM, pH3.5) and ran for 4 min (20 μl/min). Then the sample ring was rinsed with HSB-EP buffer and emptied with air. Loading 200 μl 1 M ethanolamine (Sigma) blocking solution (20 μl/min, 4 min), rinsed the sample ring with HSB-EP buffer, and emptied the sample ring with air. Observing baseline for 5 min to ensure stability. […]

SotB E29A = target: T2, SotB E29A (Escherichia coli, UniProt P31122, E29A); assay: SPR affinity assay, SotB variant E29A; conditions: read-out: KD, binding affinity with E29A
T2 construct: The full-length sotB and lapC genes from the E. coli MG1655 genome were subcloned into the cloning vector pET28a; 8xHis (C); made in house; host or cells: E. coli C43(DE3)
T2 sequence (P31122 1-396 E29A): T1 sequence (P31122 1-396 W119A) with E29A, A119W
Protocol: as §1

SotB = target: T3, SotB (Escherichia coli, UniProt P31122); assay: SPR affinity assay, wild-type SotB; type: binding; conditions: SPR, wild-type SotB immobilised, one-to-one model; read-out: KD (equilibrium dissociation constant), binding affinity with SotB
T3 construct: The full-length sotB and lapC genes from the E. coli MG1655 genome were subcloned into the cloning vector pET28a; 8xHis (C); made in house; host or cells: E. coli C43(DE3)
Protocol: The instrument used in surface plasmon resonance (SPR) affinity assays was OpenSPR (Nicoya, Canada) and the chip used was COOH sensor chip (Nicoya, Canada). SotB and its variants were as ligands. IPTG, L-arabinose, D-xylose, D-glucose, D-fructose, and D-mannose were as small molecules. Using HSB-EP buffer (10 mM HEPES, 150 mM NaCl, 3 mM EDTA, 0.005% Tween-20, pH7.4) as test buffer and setting flow rate 150 μl/min after installed COOH chip according to OpenSPRTM instrument standard operating procedure. After the signal baseline was reached, loading 200 μl 80% isopropyl alcohol and ran for 10 s to drain bubbles. After reaching baseline, the sample ring was rinsed with HSB-EP buffer and emptied with air. After the signal reached the baseline, loading 200 μl EDC (400 mM, Sigma)/NHS (100 mM, Sigma; 1:1) solution with a flow rate 20 μl/min for 4 min. Then, loading 200 μl ligand (SotB/SotB variants) diluted by the activation buffer (sodium acetate, 10 mM, pH3.5) and ran for 4 min (20 μl/min). Then the sample ring was rinsed with HSB-EP buffer and emptied with air. Loading 200 μl 1 M ethanolamine (Sigma) blocking solution (20 μl/min, 4 min), rinsed the sample ring with HSB-EP buffer, and emptied the sample ring with air. Observing baseline for 5 min to ensure stability. The small molecules were diluted with PBS buffer (2 mM of KH2PO4, 10 mM of Na2HPO4, 2.7 mM of KCl, and 137 mM of NaCl at pH 7.4), and the concentration was shown in the experimental results. The flow rate for small molecules was performed at 20 μl/min. The binding time of small molecule and ligand was 240 s, and the dissociation was 240 s. The analysis software used for the experimental results was TraceDrawer, and the analysis method was one-to-one analysis model.

[2] = system: intact E. coli MG1655 strain; assay: Growth curve (L-arabinose inhibition / D-xylose competition) assay, intact MG1655; type: cell-based, Escherichia coli
Text: In the process of sotB gene knockout, two plasmids were introduced into E. coli MG1655 strain: the plasmid pEcCas expressing Cas9 protein (kanamycin resistance) and the plasmid pEcgRNA/sotB expressing related gRNA (spectinomycin resistance). The pEcCas plasmid was successfully eliminated in this study. […] Thus, the sotB-deletion strain has resistance to spectinomycin. In order to carry out the related L-arabinose inhibition assay more strictly, the same plasmid (pEcgRNA/sotB) was then transformed into intact E. coli MG1655 cells, and the growth conditions of the two strains were measured as follows: The E. coli MG1655 cells (intact cells and sotB-deletion cells) were grown in liquid LB medium containing spectinomycin (50 μg/ml) at 37°C for overnight. The cells were then diluted to an OD600 value of 0.8 with liquid LB medium containing spectinomycin (50 μg/ml). Then, the cells were further diluted 1,000 times with liquid LB medium containing spectinomycin (50 μg/ml). The diluted cells were added to a 96-well plate (200 μl/well). Then, L-arabinose was added with final concentrations of 0 μM, 10 μM, 100 μM, 1 mM, 10 mM, and 100 mM, respectively. The 96-well plate was incubated at 37°C, and the OD600 value was measured every 1 h with a microplate reader. For the competition assay, the intact MG1655 cells diluted 1,000 times were divided into two parts and then added into 96-well plate (200 μl/well). One part was directly added with D-xylose at a final concentration of 0, 1, and 10 mM, respectively; the other part was first added with L-arabinose at a final concentration of 10 mM, then D-xylose was added with final concentrations of 0, 1, and 10 mM, respectively. The method of growth curve measurement is the same as above. All the experiments were repeated at least three times.

T3 sequence (P31122 whole entry): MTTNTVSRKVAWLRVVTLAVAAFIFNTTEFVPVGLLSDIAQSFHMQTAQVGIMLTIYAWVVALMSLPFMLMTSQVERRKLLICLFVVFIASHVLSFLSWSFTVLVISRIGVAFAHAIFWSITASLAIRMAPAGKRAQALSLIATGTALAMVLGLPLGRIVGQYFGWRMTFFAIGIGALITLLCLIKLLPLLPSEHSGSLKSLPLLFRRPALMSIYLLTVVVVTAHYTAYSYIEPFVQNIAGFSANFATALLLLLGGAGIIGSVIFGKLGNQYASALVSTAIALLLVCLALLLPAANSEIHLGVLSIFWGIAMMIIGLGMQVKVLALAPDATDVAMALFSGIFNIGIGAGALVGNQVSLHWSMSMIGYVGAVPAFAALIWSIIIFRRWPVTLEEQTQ

OC1OC[C@H](O)[C@H](O)[C@H]1O (mixture of isomers) [L-arabinose]
Effect on growth (OD600 growth curve) ([1]; sotB-deletion MG1655, 10 mM final concentration): significantly inhibit
Effect on growth (OD600 growth curve) ([1]; sotB-deletion MG1655, 100 mM final concentration): significantly inhibit
Kd (SotB W119A): 4.9 mM
Kd (SotB E29A): 5.1 mM
Kd (SotB): 4.1 mM
Growth of intact MG1655 compared to sotB-deletion MG1655 ([2]; in the presence of 1 mM L-arabinose): grew better
Effect on growth (OD600 growth curve) ([2]; intact MG1655, 10 mM final concentration): significantly inhibit
Effect on growth (OD600 growth curve) ([2]; intact MG1655, 100 mM final concentration): significantly inhibit
